Consider 2 compounds from patent US12171737B2, “Methods for reducing the symptoms of neurodegenerative disease in a human” (priority 2021, dated 2024).

In data set [1] the test system is patient with Parkinsonism. Put plainly: Case reports: skin application in patients with Parkinsonism/dystonia (Examples 3-5). In kind it is in vivo, human. The source says: This person presented with left hemiparetic neglect, reduced finger fine motor capacity, flat affect, tremor, and reduced extended arm wrist rotation and loss of shoulder extension and abduction. The diagnosis of Parkinsonism on clinical grounds was confirmed at a major hospital chain neurology clinic. […] Their extended wrist rotation range measured 60 degrees initially; by six months this approached 200 degrees. At 3 months they could extend their shoulder quickly to 180 degrees (initially slowly to 60 degrees.) This functionality continues to be maintained over 15 months of intermittent applications of salve and ingestion of isomerized safflowerate.
This person presented while on Sinemet prescribed by a major hospital chain neurology clinic for Parkinsonism. […] They also had reduced head rotation with painful limitation.
This individual stopped his Sinemet, continued every other day application of the Example 12 and oral intake of isomerized safflowerate. Improvement has maintained for 4 months, with rare intermittent right-hand tremors after a day of heavy farming.
This person sustained the onset of right arm dystonic Parkinsonism several months after a traumatic brain injury. […] Personal life issues prevented further applications.
The patient was instructed to rotate, extend and open their hand while they were actively having right hand-arm Parkinsonism tremors. They were unable to either rotate their wrist or open their hand voluntarily initially as shown on the left picture so they attempt to force it open with their left hand. The patient was treated with application of the salve over their right arm, subocciput, and upper torso bilaterally.

A further data set relates to patient with Alzheimer's. The data set can be described thus: Case reports: skin application in Alzheimer's syndrome (Examples 7, 8). In kind it is in vivo, human. The note with it: patient with early Alzheimer's disease and cortical atrophy.
Data set [2] deals with bacteria and fungi (cross-kingdom). The settings on record: hospital disinfection; Changaris and Carenbauer 2022; cited from earlier work.
The next data set has as its system patient with dystonia. The data set can be described thus: Case reports: skin application in patients with dystonia (Examples 1, 2). It is filed as in vivo, human. The settings on record: Example 1 patient, right arm dystonia; salve applied. The text has this:
Over the years, I observed progression of dystonia of a patient. […] An extended forearm wrist rotation was used to identify and measure progression of dystonia. A normal human can rotate the wrist of the fully extended arm more than 270 degrees. The patient was falling to 200 degrees with increasing pain in the opposing forearm muscles.
Last spring, I applied a salve of K-CLA, potassium-conjugated linoleic acid, to potentially kill the microbial residents in the skin causing the dystonia.
This person presented with right arm dystonia after complaints of hand incoordination worsening with vibration. Muscle tenderness and loss of range of motion of extended-wrist rotation defined the clinical diagnosis confirmed by pattern EMG (Nicolet) within a university neurology clinic. The Potassium safflowerate of Example 11 as a salve. […] The improved capacity including reduction in hand tremor has continued with application of Example 10 and 11 application every 2-7 days.

Data set [3] relates to gram positive and negative bacteria as well as fungi including Malassezia, Aspergillus, and Candida. Put plainly: Anti-microbial capacity of K-CLA. It is filed as cell-based.
The subject of data set [4] is patients having dystonia with traumatic brain injury. Put plainly: Video capture of wrist rotation before and after application, five patients with Dystonia/Parkinsonism (Example 9). It is filed as in vivo, human. The note with it: for increase in external wrist rotation / increase in internal wrist rotation: FIG. 1. The text has this:
Five patients aged 42-67 using recorded videos of hand movement Dystonia/Parkinsonism before and after application of Example 12 for 5-10 days. Four had bilateral symptoms. Using video capture to measure the rotation of their wrists before and after application of the […]. […] This improvement has been sustained with intermittent continuing application of the salve to the skin of the forearm and shoulder for 3 months.
Subsequently, I have recorded videos of hand movement in patients with Dystonia/Parkinsonism before and after similar treatment. Several had bilateral symptoms. Video capture was used to measure the rotation of their wrists before and after application of the K-CLA 0.1-12%. […] This improvement has been sustained with intermittent continuing application of the salve to the skin of the forearm and shoulder. […] Application of a broad spectrum antimicrobial with profound antifungal capacity can reverse symptoms of Dystonia/Parkinsonism.

For data set [5], the system named is malassezia species, candida, aspergillus and many gram positive and negative bacteria. The note with it: Changaris and Sullivan 2019; cited from earlier work.

In the case of `C#CCN(C)[C@H](C)Cc1ccccc1` [selegiline, reference compound], in data set [1] (Example 5, person, as tolerated), the “right arm dystonic Parkinsonism” value was “without significant improvement”.
For “potassium-conjugated linoleic acid [K-CLA]”, the skin reactions entry in data set [1] (hemiparetic Parkinsonism patient and early Alzheimer's patient, skin application) is reported as “intense skin reactions”. Also, the “acute hemiparetic Parkinsonism” value in data set [1] (patient who refused conventional medications, salve) was “improving acute hemiparetic Parkinsonism with both strength and agility”. In addition, the “mental acuity and emotionality” value in the data set with patient with Alzheimer's was “clinical improvement in mental acuity and emotionality”. Further, in data set [2], the “cross-kingdom anti-bacterial and anti-fungal efficacy” value is “sufficient to satisfy the United States Environmental Protection Agency requirements for hospital disinfection”. Also, the dystonic symptoms entry in the data set with patient with dystonia is “Most of the dystonic symptoms were resolved”. In data set [3], the anti-microbial capacity result is “extraordinary anti-microbial capacity”. For the same compound, the extended wrist rotation entry in data set [4] (applied as salve, within weeks) is “measurable improvement”. In data set [4] (first patient), the “increase in external wrist rotation” value is on record as roughly 20% and the “increase in internal wrist rotation” value is roughly 30%. Also, the “capacity to draw, patient's own impression” value in data set [4] (one patient, an architect) is on record as “capacity to draw has improved”. Moreover, in data set [4] (second patient), the “increase in external wrist rotation” value was roughly 10% and the “increase in internal wrist rotation” value was roughly 20%. Besides, the biocidal capacity entry in data set [5] is reported as “biocidal capacity against at least four malassezia species”.
